Article PMC12649408 (Antibiotics, 2025)
Bridge positions count the residues as written; N and C are the ends.

Tests used:
[1] = not given; remark: listed apart in the source
[2] = not given; remark: listed apart in the source
[3] = not given; remark: listed apart in the source
[4] = not given; remark: listed apart in the source
[5] = not given; remark: listed apart in the source
[6] = not given; remark: listed apart in the source
[7] = not given; remark: listed apart in the source
[8] = not given; remark: listed apart in the source
[9] = not given; remark: listed apart in the source
[10] = not given; remark: listed apart in the source
[11] = not given; remark: listed apart in the source

Row | Substance | Random, DPC micelles [%] | Random, SDS micelles [1] [%] | α-Helix, DPC micelles [2] [%] | β-Turn, SDS micelles [3] [%] | Random, aqueous solution [4] [%] | β-Sheet, aqueous solution [5] [%] | α-Helix, aqueous solution [6] [%] | β-Turn, DPC micelles [7] [%] | α-Helix, SDS micelles [8] [%] | β-Sheet, SDS micelles [9] [%] | β-Turn, aqueous solution [10] [%] | β-Sheet, DPC micelles [11] [%]
1 | H-RECKTESNTFPGICITKPPCRKACISEKFTDGHCSRIRRRCLCTKPC-OH (disulfide 3-47, 14-34, 20-41, 24-43) | 34.6 | 31.9 | 7.6 | 21.3 | 35.6 | 36.8 | 5.6 | 22 | 6.5 | 40.4 | 22 | 35.8
2 | H-RECKTESNTFPGICITKPPCRKACISEKFTDGHCSKILRRCLCRRPC-OH (disulfide 3-47, 14-34, 20-41, 24-43) | 31.1 | 32.5 | 15.8 | 22.7 | 38.9 | 29.8 | 7.6 | 22.6 | 16.2 | 28.5 | 23.7 | 30.4
3 | H-RECKTESNTFPGICITKPPCRKACISEKFTDGHCSKIRRRCLCRRPC-OH (disulfide 3-47, 14-34, 20-41, 24-43) | 32.9 | 31 | 14.1 | 21.7 | 37.7 | 30.7 | 8.9 | 21.7 | 16.6 | 30.8 | 22.7 | 31.2
